According to US4281121A, “1,3,4-Thiadiazole-2-carboxylic acid derivatives, process for making the same and fungicidal and nematocidal compositions containing same” (Schering Aktiengesellschaft, priority 1978, dated 1981):
Read-outs that look alike come from different tables or passages of the source.

Experiments:
Tilletia caries [1] = assay: Treatment of oat seeds infested with Tilletia caries (spore germination); type: in vivo
Tilletia caries [2] = assay: Seed treatment in open field tests regarding infestation by Tilletia caries (oats); type: in vivo
Pythium ultimum = assay: Threshold concentration test for use of the compounds against Pythium ultimum (infested soil, garden peas); type: in vivo; set-up: key to root evaluation (1-4): 4: white roots without fungous necrosis; 3: white roots, minor fungous necrosis; 2: brown roots, already more pronounced fungous necrosis; 1: heavy fungous necrosis, roots rotted; conditions: for root evaluation (1-4): 3 weeks; for number of sound peas: 20 grains per dish, 3 weeks at 20-24° C.
Procedure, shortened: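 Garden pea seeds, 20 per dish, went straight into Pythium ultimum-infested soil into which 20% pulverulent formulations had been uniformly blended. Sound plants counted and roots rated 1–4 after three weeks of hothouse growth at 20–24 °C.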

Helminthosporium gram = conditions: about 5 weeks
Description: Treatment of barley seeds infested with Helminthosporium gram
After emergence, the plants were subjected to illumination for 12 hours per day. After about 5 weeks the infested plants were counted and the total number of plants for each test were also counted. The active agents tested were used as pulverulent compositions.

Fusarium nivale = assay: Treatment of rye seeds against Fusarium nivale; type: in vivo; conditions: 100 g/100 kg; about 4 weeks
Description: Treatment of rye seeds against Fusarium nivale
Rye seeds with a natural infestation by Fusarium nivale were seeded in earth filled pots and left for germination at about 6° C. Part of the seeds was treated before seeding with the active agents as appears from the subsequent table and part was untreated. After emergence of the seedlings the plants were illuminated with artificial light for 12 hours each day. After about 4 weeks the degree of infestation was determined in percentages. The fungicidal activity was calculated on the basis of the following formula: [formula]
The active agents were used in the form of 20% concentration compositions.

Fusarium avenaceum [3] = assay: Threshold concentration test in case of Fusarium avenaceum (infested soil, garden peas); type: in vivo; conditions: for number of sound peas: 20 grains per dish, 18 days at 20-24° C.; for root evaluation (1-4): 18 days
Procedure, shortened: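 Soil heavily infested with Fusarium avenaceum was mixed uniformly with a 20% powder formulation of active agent, then sown immediately with 20 garden pea seeds ('Wunder von Kelvedon') per dish. After 18 days in a greenhouse at 20° to 24° C., sound plants were counted and roots scored on a 1–4 scale.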

Fusarium avenaceum [4] = assay: Inhibition of fungus in a nutrient solution: Fusarium avenaceum; type: cell-based; conditions: 6 days at 21-23° C.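 Also: 0 means no fungus growth and higher grades mean more surface covered.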
Description: Inhibition of fungus in a nutrient solution
20 ml of a nutrient solution of grape juice and water (1:1) were filled into a glass vial of a 100 ml capacity and were mixed with the pulverulent active agents which appear from the subsequent table. Thereafter, the solution was inoculated with conidia (spores) of the test fungi.
After an incubation time of 6 days at 21° to 23° C. the fungus development on the surface of the nutrient solution was evaluated. The test fungi used were the following: Penicillium digitatum, Botrytis cinerea, Alternaria solani, Fusarium avenaceum.
The evaluation was carried out at a scale from 0 to 5 as follows: […]

Botrytis cinerea = assay: Inhibition of fungus in a nutrient solution: Botrytis cinerea; type: cell-based; conditions: 6 days at 21-23° C.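 Also: 0 means no fungus growth and higher grades mean more surface covered.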
Alternaria solani = assay: Inhibition of fungus in a nutrient solution: Alternaria solani; type: cell-based; conditions: 6 days at 21-23° C.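 Also: 0 means no fungus growth and higher grades mean more surface covered.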
Penicillium digitatum = assay: Inhibition of fungus in a nutrient solution: Penicillium digitatum; type: cell-based; conditions: 6 days at 21-23° C.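 Also: 0 means no fungus growth and higher grades mean more surface covered.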
[5] = tested on: Helminthosporium gramineum; assay: Seed treatment in open field tests for infestation by Helminthosporium gramineum (barley); type: in vivo; conditions: summer barley, about 3 months
Description: Seed treatment in open field tests for infestation by Helminthosporium gramineum
The active agents were used in the form of pulverulent compositions. After about 8 months in case of winter barley and after about 3 months in case of summer barley the infested plants were counted and the activity was calculated by the formula [formula]

Piricularia oryzae = type: in vivo; conditions: 5 days
Septoria nodorum = assay: Treatment of oat seeds against Septoria nodorum; type: in vivo; conditions: 50 g active agent/100 kg seeds; 4 weeks
Description: Effects of the treatment of oat seeds against Septoria nodorum
They were then seeded on a moist substrate for germination. As a control untreated seeds were likewise seeded. At about 6° C. the seed was incubated in an air-conditioned chamber until after 4 weeks the proportion of diseased seeds could be determined and the activity of the fungicidal compounds was calculated on the basis of the following formula: [formula]
The active agents were applied in the form of 20% concentration pulverulent compositions.

Plasmopara viticola = assay: Prophylactic leaf treatment of grapevines in the hothouse against Plasmopara viticola; type: in vivo
Procedure, shortened: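 Activity derived from average percentage of leaf surface infested per treatment. Plants with 5–8 leaves received preventive spray (20% spray powder formulation), then undersides inoculated with ~20,000 sporangia/ml; held at 22–24 °C with full humidity, reduced to 30–70% for 3–4 days, then saturated one day.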

[6] = 25 g active agent/100 kg barley
[7] = 50 g active agent/100 kg barley
[8] = 100 g active agent/100 kg barley
[9] = concentration of active agent 0.1 (percentages)
[10] = concentration of active agent 0.025 (unit not given)

| Structure (SMILES) | % activity (Tilletia caries [1]; 5 g active agent per 100 kg) | % activity (Tilletia caries [1]; 10 g active agent per 100 kg) | % activity (Tilletia caries [1]; 20 g active agent per 100 kg) | root evaluation (1-4) (Pythium ultimum; 20 mg/l soil) | number of sound peas (Pythium ultimum; 20 mg/l soil) | root evaluation (1-4) (Pythium ultimum; 40 mg/l soil) | number of sound peas (Pythium ultimum; 40 mg/l soil) | root evaluation (1-4) (Pythium ultimum; 80 mg/l soil) | number of sound peas (Pythium ultimum; 80 mg/l soil) | % activity (Helminthosporium gram; 10 g active agent per 100 kg) | % activity (Helminthosporium gram; 20 g active agent per 100 kg) | % activity (Helminthosporium gram; 50 g active agent per 100 kg) | % activity (Fusarium nivale) | fungus development on the surface of the nutrient solution (0-5) (Fusarium avenaceum [4]; 0.002%) | % activity (Tilletia caries [1]; 50 g active agent per 100 kg) | % activity [5, 6] | % activity [5, 7] | % activity [5, 8] | % activity (Piricularia oryzae; [9]) | % activity (Septoria nodorum) | further results |
| --- | --- | --- | --- | --- | --- | --- | --- | --- | --- | --- | --- | --- | --- | --- | --- | --- | --- | --- | --- | --- | --- |
| CC[S+]([O-])c1nnc(C(N)=O)s1 (stereo not drawn) [5-ethylsulfinyl-1,3,4-thiadiazole-2-carboxamide] | 78% | 96% | 100% | 2 | 15 | 4 | 20 | 4 | 20 | 99% | 100% | 100% | 93% | – | – | – | – | – | – | – | % activity (Tilletia caries [2]; summer oats, 25 g active agent/100 kg, about 4 months): 100%; % activity (Tilletia caries [2]; summer oats, 50 g active agent/100 kg, about 4 months): 100% |
| CCS(=O)(=O)c1nnc(C#N)s1 [5-ethylsulfonyl-1,3,4-thiadiazole-2-carbonitrile] | – | – | – | 2 | 19 | 4 | 20 | 4 | 20 | – | – | – | 92% | 0 | – | – | – | – | – | – | number of sound peas (Fusarium avenaceum [3]; 25 mg/l soil): 18; root evaluation (1-4) (Fusarium avenaceum [3]; 25 mg/l soil): 4; number of sound peas (Fusarium avenaceum [3]; 50 mg/l soil): 20; root evaluation (1-4) (Fusarium avenaceum [3]; 50 mg/l soil): 4; number of sound peas (Fusarium avenaceum [3]; 100 mg/l soil): 20; root evaluation (1-4) (Fusarium avenaceum [3]; 100 mg/l soil): 4; fungus development on the surface of the nutrient solution (0-5) (Fusarium avenaceum [4]; 0.004%): 0; fungus development on the surface of the nutrient solution (0-5) (Botrytis cinerea; 0.002%): 1; fungus development on the surface of the nutrient solution (0-5) (Botrytis cinerea; 0.004%): 0; fungus development on the surface of the nutrient solution (0-5) (Alternaria solani; 0.002%): 0; fungus development on the surface of the nutrient solution (0-5) (Alternaria solani; 0.004%): 0; fungus development on the surface of the nutrient solution (0-5) (Penicillium digitatum; 0.002%): 0; fungus development on the surface of the nutrient solution (0-5) (Penicillium digitatum; 0.004%): 0 |
| CCS(=O)(=O)c1nnc(C(N)=O)s1 [5-ethylsulfonyl-1,3,4-thiadiazole-2-carboxamide] | 87% | 93% | 100% | 2 | 18 | 4 | 18 | 4 | 20 | 97% | 100% | 100% | 99.2% | – | – | – | – | – | – | – | – |
| CCS(=O)(=O)c1nnc(C(=O)NCCOC)s1 [5-ethylsulfonyl-1,3,4-thiadiazole-2-carboxylic acid-(2-methoxyethyl)-amide] | – | 100% | 100% | 1 | 13 | 4 | 16 | 4 | 16 | 100% | 99% | 100% | – | – | 100% | 92% | 98% | 99.8% | 90% | 86% | – |
| CCS(=O)(=O)c1nnc(C(=O)NCCCOC)s1 [5-ethylsulfonyl-1,3,4-thiadiazole-2-carboxylic acid-(3-methoxypropyl)-amide] | – | 100% | 100% | 1 | 11 | 4 | 18 | 4 | 17 | 99% | 99% | 100% | – | – | 100% | 94% | 96% | 100% | 97% | 86% | % activity (Plasmopara viticola; [10]): 90% |
| CCCCNC(=O)c1nnc(S(=O)(=O)CC)s1 [5-ethylsulfonyl-1,3,4-thiadiazole-2-carboxylic acid-butylamide] | – | 100% | 100% | 1 | 8 | 4 | 16 | 4 | 20 | – | – | – | – | 1 | 100% | – | – | 100% | 97% | – | fungus development on the surface of the nutrient solution (0-5) (Fusarium avenaceum [4]; 0.004%): 0; fungus development on the surface of the nutrient solution (0-5) (Botrytis cinerea; 0.002%): 2 (5 to 10% of the surface covered by the fungus turf); fungus development on the surface of the nutrient solution (0-5) (Botrytis cinerea; 0.004%): 0; fungus development on the surface of the nutrient solution (0-5) (Alternaria solani; 0.002%): 1; fungus development on the surface of the nutrient solution (0-5) (Alternaria solani; 0.004%): 0; fungus development on the surface of the nutrient solution (0-5) (Penicillium digitatum; 0.002%): 1; fungus development on the surface of the nutrient solution (0-5) (Penicillium digitatum; 0.004%): 0 |
| CCOC(=O)c1nnc(S(=O)(=O)CC)s1 [5-ethylsulfonyl-1,3,4-thiadiazole-2-carboxylic acid-ethylester] | – | – | – | – | – | – | – | – | – | – | – | – | – | 1 | – | – | – | – | 95% | – | fungus development on the surface of the nutrient solution (0-5) (Fusarium avenaceum [4]; 0.004%): 0; fungus development on the surface of the nutrient solution (0-5) (Botrytis cinerea; 0.002%): 2 (5 to 10% of the surface covered by the fungus turf); fungus development on the surface of the nutrient solution (0-5) (Botrytis cinerea; 0.004%): 0; fungus development on the surface of the nutrient solution (0-5) (Alternaria solani; 0.002%): 0; fungus development on the surface of the nutrient solution (0-5) (Alternaria solani; 0.004%): 0; fungus development on the surface of the nutrient solution (0-5) (Penicillium digitatum; 0.002%): 1; fungus development on the surface of the nutrient solution (0-5) (Penicillium digitatum; 0.004%): 0 |
| CCS(=O)(=O)c1nnc(C(=O)NC(C)C)s1 [5-ethylsulfonyl-1,3,4-thiadiazole-2-carboxylic acid-isopropylamide] | – | 100% | 100% | 3 | 16 | 3 | 15 | 4 | 16 | 95% | 98% | 100% | – | – | 100% | 96% | 100% | 99.8% | 99% | 86% | % activity (Plasmopara viticola; [10]): 92% |
| CCCNC(=O)c1nnc(S(=O)(=O)CC)s1 [5-ethylsulfonyl-1,3,4-thiadiazole-2-carboxylic acid-propylamide] | – | 100% | 100% | – | – | – | – | – | – | – | – | 92% | – | – | 100% | 95% | 99.3% | 100% | – | 81% | – |
| CS(=O)(=O)c1nnc(C(=O)NCC2CCCCC2)s1 [5-methylsulfonyl-1,3,4-thiadiazole-2-carboxylic acid cyclohexylmethylamide] | 86% | 99% | 100% | – | – | – | – | – | – | – | – | – | – | – | – | – | – | – | 80% | – | % activity (Tilletia caries [2]; winter oats, 100 g active agent/100 kg, about 9 months): 100%; % activity (Piricularia oryzae; concentration of active agent 0.02 (percentages)): 60%; % activity (Plasmopara viticola; concentration of active agent 0.001 (unit not given)): 76%; % activity (Plasmopara viticola; concentration of active agent 0.005 (unit not given)): 88%; % activity (Plasmopara viticola; [10]): 97% |
